Results: patent US20220098265A1 (MEDIMMUNE LIMITED, priority 2012, published 2022)
Numbered stars: 1 amine (or outer) side, 2 acyl side, 3 side chain; on linkers, the order of the positions; unused ones are H or OH. Side chains are listed from the residue outwards. Peptide text beside a SMILES is read from it. * marks the point of attachment. γGlu = O=C(O)[C@H](CCC(=O)[*:2])N[*:1]; Palmitoyl = CCCCCCCCCCCCCCCC(=O)*

Key:
[1] = Stability testing of peptides in mouse plasma; type: in vitro ADME
Experimental: (§1) Stability testing of peptides in plasma. The stability in plasma of the peptides […], […], […] and […] was determined as follows. […] The frozen blank plasma from human, rat and mouse had been thawed and heated to a temperature of 37° C. before addition of the stock solution. The spiked plasma samples were gently mixed and allowed to equilibrate for about 5 minutes before start of experiment. The plasma samples were incubated for 48 hours in a Galaxy® CO2 incubator at 37° C. […] The samples were stored at -70° C. until analysis. Plasma samples were assayed as follows. The 30 μL plasma samples were protein precipitated with […] of cold ethanol in a 96-well low bind plate (Eppendorf Protein LoBind). After mixing and centrifugation 100 μl the supernatant was transferred to a new plate and 1 μl was injected onto an analytical column. The analysis was performed using a μLC-system ([…]) coupled to a medium high resolution mass spectrometer (Perkin Elmer PenTOF) with positive electrospray ionisation. […] Flow: 0.1 ml/min using a slow reversed phase gradient. […] Products with +1 mass may arise from deamidation at amide groups of glutamine or at the C-terminus. Cleavage products arise from the action of the protease DPP IV in plasma. Both the degradation of the peptides and formation of peptide products were reported in percentage of the initial peptide concentration. Peaks were integrated and % remaining peptide was calculated: […] Levels of deamidation and DPP IV cleavage were low for […] and […].

[2] = Stability testing of peptides in human plasma; type: in vitro ADME
Experimental: as §1

[3] = Stability testing of peptides in rat plasma; type: in vitro ADME
Experimental: Stability testing of peptides in plasma. The stability in plasma of the peptides […], […], […] and […] was determined as follows. […] The frozen blank plasma from human, rat and mouse had been thawed and heated to a temperature of 37° C. before addition of the stock solution. The spiked plasma samples were gently mixed and allowed to equilibrate for about 5 minutes before start of experiment. The plasma samples were incubated for 48 hours in a Galaxy® CO2 incubator at 37° C. […] The samples were stored at -70° C. until analysis. Plasma samples were assayed as follows. The 30 μL plasma samples were protein precipitated with […] of cold ethanol in a 96-well low bind plate (Eppendorf Protein LoBind). After mixing and centrifugation 100 μl the supernatant was transferred to a new plate and 1 μl was injected onto an analytical column. The analysis was performed using a μLC-system ([…]) coupled to a medium high resolution mass spectrometer (Perkin Elmer PenTOF) with positive electrospray ionisation. […] Flow: 0.1 ml/min using a slow reversed phase gradient. […] Products with +1 mass may arise from deamidation at amide groups of glutamine or at the C-terminus. Cleavage products arise from the action of the protease DPP IV in plasma. […] Peaks were integrated and % remaining peptide was calculated: […] […]

DIO mice = test: Diet induced obesity (DIO) mouse model, study A; type: in vivo; conditions: for HOMA / Hepatic TG / Plasma NEFA / Plasma TG: day 14; for FGF21 / BeHy: day 14 (dose from row order); for Glucose / Insulin: day 14, 4-hour fasting; for BeHy: beta-hydroxybutyrate
Description: Female C57/B16JHsdOla (obtained from Harlan Laboratories, UK) were started on a high fat diet of D12492 (Research Diets, NJ, USA) and a chocolate confection, delicato ball (Delicata Bakverk, Sweden) at 9-11 weeks of age, and were maintained on the diet for 16 weeks prior to arrival to the animal facility, during a three week acclimatizion period and during drug treatment, caloric content of the two components of the diet is shown in Table 11. The mice were divided into 9 groups (n=5-6), and treatment was started at 29 weeks of age.
The body weight of the animals was monitored daily throughout the dosing period. At day 14, blood samples for the measurement of plasma glucose and insulin from conscious mice were obtained after a 4-hour fasting period. Mice were then anaesthetized using isofluorane and terminal blood was collected from the capillary bed behind the eye. The following parameters were measured: blood chemistry measurements of triglycerides, total cholesterol, non-esterified fatty acids (NEFA), beta-hydroxybutyrate and fibroblast growth factor 21 (FGF21) (Tables 14 and 15 below).

physchem = conditions: pH 7.2
Experimental: Peptide solubility was assessed in three different isotonic formulations: • 1. […] Final formulation pH=7.2 • 2. Back up formulation 1 (BF1)=0.05M Tris, 50 mM Arginine/Proline. Final formulation pH=8.0 • 3. […] Final formulation pH=7.0

human serum albumin = human serum albumin (Homo sapiens, UniProt P02768); test: Fraction of free peptide at plasma concentration of albumin, calculated from variation in cAMP generation with HSA concentration; type: in vitro ADME; design: purchased Sigma Aldrich; conditions: calculated from variation in cAMP generation with HSA concentration
[4] = Peptide solubility in buffers (A280); conditions: target 1 mg/ml
Rat GlucR = Rat GlucR (Rattus norvegicus, UniProt P30082); test: cAMP assay 2 in […] rat serum albumin, rat GlucR; conditions: assay 2, […] Rat Serum Albumin; relative potencies vs natural ligands
Mouse GlucR = Mouse GlucR (Mus musculus, UniProt Q61606); test: cAMP assay 2 in […] mouse serum albumin, mouse GlucR; conditions: assay 2, […] Mouse Serum Albumin; relative potencies vs natural ligands
Human GlucR = Human GlucR (Homo sapiens, UniProt P47871); test: cAMP assay 2 in 4.4% human serum albumin, human GlucR; conditions: assay 2, 4.4% Human Serum Albumin; relative potency GlucR (vs glucagon)/relative potency GLP1R (vs GLP1)
Chain of Human GlucR (P47871 26-477): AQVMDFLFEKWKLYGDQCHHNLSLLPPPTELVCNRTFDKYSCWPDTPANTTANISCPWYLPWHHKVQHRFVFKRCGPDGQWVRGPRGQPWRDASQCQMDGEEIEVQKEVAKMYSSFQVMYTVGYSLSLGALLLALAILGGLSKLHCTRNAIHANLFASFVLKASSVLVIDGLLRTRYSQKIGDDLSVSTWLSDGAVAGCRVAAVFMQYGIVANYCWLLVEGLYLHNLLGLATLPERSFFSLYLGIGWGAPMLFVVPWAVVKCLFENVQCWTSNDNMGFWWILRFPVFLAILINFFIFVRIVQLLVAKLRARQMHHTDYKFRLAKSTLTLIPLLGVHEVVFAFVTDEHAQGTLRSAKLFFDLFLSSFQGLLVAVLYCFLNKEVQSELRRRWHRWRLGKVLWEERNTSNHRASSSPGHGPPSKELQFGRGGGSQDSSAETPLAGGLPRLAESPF

Chain of Mouse GlucR (Q61606 27-485): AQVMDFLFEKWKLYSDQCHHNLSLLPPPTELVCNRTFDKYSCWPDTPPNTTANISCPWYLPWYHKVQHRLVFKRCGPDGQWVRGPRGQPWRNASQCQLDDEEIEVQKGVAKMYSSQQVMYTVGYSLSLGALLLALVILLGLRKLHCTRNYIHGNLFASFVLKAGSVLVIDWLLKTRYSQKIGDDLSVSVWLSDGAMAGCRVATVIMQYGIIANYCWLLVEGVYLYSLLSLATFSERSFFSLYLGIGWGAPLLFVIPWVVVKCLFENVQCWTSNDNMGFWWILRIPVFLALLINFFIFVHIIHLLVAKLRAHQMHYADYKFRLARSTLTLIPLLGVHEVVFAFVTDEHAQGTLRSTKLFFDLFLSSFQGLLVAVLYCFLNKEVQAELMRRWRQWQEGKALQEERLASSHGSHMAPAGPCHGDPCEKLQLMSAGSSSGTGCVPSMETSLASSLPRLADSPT
Chain of human serum albumin (P02768 25-609): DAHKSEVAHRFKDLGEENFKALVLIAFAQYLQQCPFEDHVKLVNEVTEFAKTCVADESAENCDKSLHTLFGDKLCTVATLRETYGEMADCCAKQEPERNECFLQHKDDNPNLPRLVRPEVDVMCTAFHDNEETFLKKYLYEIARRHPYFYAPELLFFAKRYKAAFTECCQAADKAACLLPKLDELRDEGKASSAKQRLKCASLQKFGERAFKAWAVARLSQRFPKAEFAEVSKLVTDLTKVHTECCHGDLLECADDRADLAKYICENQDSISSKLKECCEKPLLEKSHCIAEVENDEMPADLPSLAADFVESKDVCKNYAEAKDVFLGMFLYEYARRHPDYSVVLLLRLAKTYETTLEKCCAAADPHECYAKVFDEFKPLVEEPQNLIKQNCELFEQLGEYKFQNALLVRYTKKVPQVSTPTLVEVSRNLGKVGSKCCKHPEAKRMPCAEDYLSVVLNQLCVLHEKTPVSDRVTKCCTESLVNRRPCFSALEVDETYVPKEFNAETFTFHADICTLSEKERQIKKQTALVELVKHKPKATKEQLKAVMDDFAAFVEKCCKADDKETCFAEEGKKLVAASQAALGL
Chain of Rat GlucR (P30082 27-485): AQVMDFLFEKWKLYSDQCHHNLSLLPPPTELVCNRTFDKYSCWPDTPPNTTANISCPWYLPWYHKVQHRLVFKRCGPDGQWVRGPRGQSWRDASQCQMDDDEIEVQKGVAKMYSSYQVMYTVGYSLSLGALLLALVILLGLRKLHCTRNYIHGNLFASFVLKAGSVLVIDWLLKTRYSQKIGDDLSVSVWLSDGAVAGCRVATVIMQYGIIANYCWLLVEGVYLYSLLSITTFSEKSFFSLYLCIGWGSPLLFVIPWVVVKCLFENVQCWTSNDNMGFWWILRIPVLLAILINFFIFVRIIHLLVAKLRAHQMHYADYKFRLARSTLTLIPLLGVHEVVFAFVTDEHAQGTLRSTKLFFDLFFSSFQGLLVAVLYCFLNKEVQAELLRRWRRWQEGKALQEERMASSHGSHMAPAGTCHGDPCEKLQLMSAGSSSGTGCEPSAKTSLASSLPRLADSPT

Compound: CCCCCCCCCCCCCCCC(=O)N[C@@H](CCC(=O)NCCCC[C@H](NC(=O)[C@H](CCCCN)NC(=O)[C@H](CO)NC(=O)[C@H](Cc1ccc(O)cc1)NC(=O)[C@H](CC(=O)O)NC(=O)[C@H](CO)NC(=O)[C@@H](NC(=O)[C@H](Cc1ccccc1)NC(=O)[C@@H](NC(=O)CNC(=O)[C@H](CCC(N)=O)NC(=O)[C@H](CO)NC(=O)[C@@H](N)Cc1c[nH]cn1)[C@@H](C)O)[C@@H](C)O)C(=O)N[C@@H](CC(C)C)C(=O)N[C@@H](CC(=O)O)C(=O)N[C@@H](CO)C(=O)N[C@@H](CCC(=O)O)C(=O)N[C@@H](CCCNC(=N)N)C(=O)N[C@@H](C)C(=O)N[C@@H](CCCNC(=N)N)C(=O)N[C@@H](CC(=O)O)C(=O)N[C@@H](Cc1ccccc1)C(=O)N[C@H](C(=O)N[C@@H](C)C(=O)N[C@@H](Cc1c[nH]c2ccccc12)C(=O)N[C@@H](CC(C)C)C(=O)N[C@H](C(=O)N[C@@H](C)C(=O)NCC(=O)NCC(N)=O)C(C)C)C(C)C)C(=O)O [Peptide G730] (H-HSQGTFTSDYSKK([γGlu-Palmitoyl])LDSERARDFVAWLVAGG-NH2; N-terminus assumed)
- % +1 prod [1]: 15%
- % DPP cleaved product ([1]; Mouse Plasma at 24 h, 37° C., column % DPP cleaved product/+1 DPP cleaved product, first figure): 14%
- % +1 DPP cleaved product ([1]; Mouse Plasma at 24 h, 37° C., column % DPP cleaved product/+1 DPP cleaved product, second figure): 5%
- % +1 prod [2]: <1%
- % DPP cleaved product/+1 DPP cleaved product [2]: <1%
- % +1 prod [3]: 58%
- % DPP cleaved product/+1 DPP cleaved product [3]: 2%
- BW day 14 (% change of vehicle mean) (DIO mice; 10 nmol/kg s.c. twice daily for 14 days): −7.5%
- HOMA (DIO mice; 10 nmol/kg s.c. twice daily): 3.3
- Hepatic TG (DIO mice; 10 nmol/kg s.c. twice daily): 9.0 g TG/100g Tissue
- Plasma NEFA (DIO mice; 10 nmol/kg s.c. twice daily): 0.28 mM
- Plasma TG (DIO mice; 10 nmol/kg s.c. twice daily): 0.21 mM
- FGF21 (DIO mice; 10 nmol/kg s.c. twice daily): 1963 pg/mL
- Glucose (DIO mice; 10 nmol/kg s.c. twice daily): 7.2 mM
- Insulin (DIO mice; 10 nmol/kg s.c. twice daily): 0.4 nM
- BW day 14 (% change of vehicle mean) (DIO mice; 20 nmol/kg s.c. twice daily for 14 days): −15.6%
- HOMA (DIO mice; 20 nmol/kg s.c. twice daily): 1.7
- Hepatic TG (DIO mice; 20 nmol/kg s.c. twice daily): 17.7 g TG/100g Tissue
- Plasma NEFA (DIO mice; 20 nmol/kg s.c. twice daily): 0.26 mM
- Plasma TG (DIO mice; 20 nmol/kg s.c. twice daily): 0.2 mM
- FGF21 (DIO mice; 20 nmol/kg s.c. twice daily): 2236 pg/mL
- Glucose (DIO mice; 20 nmol/kg s.c. twice daily): 6.7 mM
- Insulin (DIO mice; 20 nmol/kg s.c. twice daily): 0.2 nM
- insulin sensitivity index HOMA (DIO mice; 20 nmol/kg, result in words): significantly improved
- change in weight at day 14 as compared to the vehicle-treated animals (DIO mice; 50 nmol/kg): about 24%
- BW day 14 (% change of vehicle mean) (DIO mice; 50 nmol/kg s.c. twice daily for 14 days): −24.0%
- HOMA (DIO mice; 50 nmol/kg s.c. twice daily): 2.1
- Hepatic TG (DIO mice; 50 nmol/kg s.c. twice daily): 28.1 g TG/100g Tissue
- Plasma NEFA (DIO mice; 50 nmol/kg s.c. twice daily): 0.32 mM
- Plasma TG (DIO mice; 50 nmol/kg s.c. twice daily): 0.23 mM
- FGF21 (DIO mice; 50 nmol/kg s.c. twice daily): 5294 pg/mL
- Glucose (DIO mice; 50 nmol/kg s.c. twice daily): 5.9 mM
- Insulin (DIO mice; 50 nmol/kg s.c. twice daily): 0.3 nM
- Total plasma cholesterol (DIO mice; at all doses, result in words): lowered
- BeHy (DIO mice; 10 nmol/kg s.c. twice daily): 428 µmol/L
- BeHy (DIO mice; 20 nmol/kg s.c. twice daily): 750 µmol/L
- BeHy (DIO mice; 50 nmol/kg s.c. twice daily): 1477 µmol/L
- effect on body weight over the 14 day dosing period (DIO mice; study A, FIGS. 1-4): dose dependent and continuous weight loss
- glucose levels at day 14 (DIO mice; study A, result in words): dose-dependent reduction
- solubility (physchem): ≥ 5 mg/mL
- free peptide at 4.4% HSA (human serum albumin): 0.85%
- Conc. (mg/ml) A280 ([4]; Glutamate pH 4.5, 100 mM): 0.83 mg/mL
- Conc. (mg/ml) A280 ([4]; Phosphate pH 6.5, 100 mM): 0.83 mg/mL
- Conc. (mg/ml) A280 ([4]; Phosphate pH 7.5, 100 mM): 0.85 mg/mL
- Conc. (mg/ml) A280 ([4]; Phosphate, pH = 6, 100 mM): 0.14 mg/mL
- Conc. (mg/ml) A280 ([4]; Tris pH 7.5, 100 mM): 0.83 mg/mL
- Conc. (mg/ml) A280 ([4]; Tris pH 8.0, 100 mM): 1.1 mg/mL
- Rat GlucR/GLP1R Ratio (Rat GlucR): 0.06
- Mouse GlucR/GLP1R Ratio (Mouse GlucR): 0.04
- Human GlucR/GLP1R Ratio (Human GlucR): 0.122
